{"source": "patent US11565005B2", "about": "“Dota-hapten compositions for anti-dota/anti-tumor antigen bispecific antibody pretargeted radioimmunotherapy” (MEMORIAL SLOAN KETTERING CANCER CENTER, priority 2017, dated 2023)", "key": {"[1]": {"experiment": "Dose-escalation toxicology study of [^225Ac]Proteus-DOTA in healthy nude mice", "assay_type": "in vivo", "experimental": "The maximum tolerated dose was not reached. Treated animal weights plotted as the percentage of pre-treatment baseline weight. Asterisk (*) indicates mouse required euthanasia or was discovered deceased. Data is presented as mean ±SD.\nToxicology study of [^225Ac]Pr-DOTA in healthy mice. A dose-escalation toxicity study was performed to evaluate any morbidity and histopathological damage attributed to [^225Ac]Proteus-DOTA. […] Unscheduled mortality (mice found dead or found sick and euthanized) were submitted for pathology. […] A total of three unscheduled mortalities occurred: 2/5 from the 0.5 μCi dose group; one on day 36 that was submitted for necropsy because of 20% weight loss-no gross pathologic or histopathologic lesions were observed, and no significant findings were observed on hematology and serum chemistry; and by the time the other mouse was found dead on day 144, necropsy was not possible. In addition, one mouse from group 8 μCi was euthanized after 123 days with a Staphylococcus bacterial infection. The significant findings in this mouse were histiocytic and eosinophilic myocardis, eosinophilic interstitial pneumonia, soft tissue hemorrhages, marked thrombocytopenia, and mild anemia with elevation of reticulocytes. The myocarditis, pnemonia, and mild anemia were related to some findings observed at scheduled sacrifice. Such thrombocytopenia with secondary hemorrhages was not observed in other mice in this study. Serum chemistry was unremarkable."}, "[2]": {"tested_on": "GPA33-expressing SW1222 xenografts", "experiment": "Anti-GPA33-DOTA-PRIT + [^225Ac]Proteus-DOTA biodistribution", "conditions": "for Blood uptake / SW1222 tumor uptake: pretargeted with huA33-C825 + clearing agent", "experimental": "Biodistribution Experiments. A treatment cycle of anti-GPA33 DOTA-PRIT consisted of three separate intravenous injections via the tail vein: 0.25 mg of huA33-C825 antibody (described in WO2016/130539) at t=−28 h, then […] of clearing agent (500 kD-dextran-DOTA-Bn(Y)) at t=−4 h, and [^225Ac]Proteus-DOTA at t=0. For ex vivo biodistribution analysis following the radiohaptens or anti-HER2-C825/[^225Ac]Proteus-DOTA, mice were euthanized by CO2(g) asphyxiation, and the tumors and selected organs were harvested, rinsed with water, air-dried, weighed, and radioassayed by gamma scintillation counting (Perkin Elmer Wallac Wizard 3″, Perkin Elmer, Waltham, Mass.). Count rates were background- and decay-corrected, converted to activities using a system calibration factor specific for the isotope, normalized to the administered activity, and expressed as average percent injected dose per gram (% ID/g)±1 standard deviation. Differences in radioactivity concentration in tumor and various tissues were analyzed by Student's unpaired t test when appropriate.\nBiodistribution Studies Following In vivo Targeting with Anti-GPA33-DOTA-PRIT+[^225Ac]Proteus-DOTA. [^225Ac]Proteus-DOTA was prepared to a final specific activity of 0.20 Ci/g or 274 Ci/mol and injected into groups of animals within 24-48 hours of preparation. Animals that had received injections of huA33-C825 and clearing agent were injected with […] of [^225Ac]Proteus-DOTA that was prepared approximately 24 hours prior. The following day, animals were sacrificed for ex vivo biodistribution assessment at 24 hours post injection of [^225Ac]Proteus-DOTA in tumors and select normal tissues. A control group of non-tumor bearing animals were injected with […] of [^225Ac]Proteus-DOTA that was prepared approximately 48 hours prior, and were sacrificed 1 hour post injection of [^225Ac]Proteus-DOTA for ex vivo biodistribution assessment in normal tissues. Carcass radioactivity was not collected during this study.\nA control group of healthy nude mice were injected with [^225Ac]Proteus-DOTA only (198 pmol, 1.85 kBq [50 nCi]) to evaluate normal tissue uptake of the [^225Ac]Proteus-DOTA preparation.\nThese mice were sacrificed 24 h p.i. of [^225Ac]Proteus-DOTA for biodistribution assay. All animals were sacrificed at 24 h p.i. for biodistribution."}, "[3]": {"conditions": "24 h p.i., n = 3, listed as [^225Ac] Proteus-DOTA"}}, "note": "Marks after values point to notes of the source that are not given here."}
{"smiles": "O=C([O-])CN1CCN(CC(=O)[O-])CCN(CC(=O)NCCOCCOCCOCCOCCNC(=S)Nc2ccc(CC3CN(CC(=O)[O-])CCN(CC(=O)[O-])CCN(CC(=O)[O-])CCN3CC(=O)[O-])cc2)CCN(CC(=O)[O-])CC1.[225Ac+3].[Lu+3]", "note": "(stereo not shown) [[^225Ac]Proteus-DOTA]", "values": [{"measurement": "toxicity (defined as >10% weight loss)", "setting": "[1]; 0.25-8 μCi/mouse, 145 days", "result": "no toxicity was observed"}, {"measurement": "mice affected by histiocytic and eosinophilic inflammation", "setting": "[1]; 0.25 μCi", "result": "0/5"}, {"measurement": "mice affected by histiocytic and eosinophilic inflammation", "setting": "[1]; 0.5 μCi", "result": "0/4"}, {"measurement": "unscheduled mortalities", "setting": "[1]; 0.5 μCi dose group (day 36 and day 144)", "result": "2/5"}, {"measurement": "mice affected by histiocytic and eosinophilic inflammation", "setting": "[1]; 1 μCi", "result": "0/5"}, {"measurement": "mice affected by histiocytic and eosinophilic inflammation", "setting": "[1]; 2 μCi", "result": "1/5"}, {"measurement": "mice affected by histiocytic and eosinophilic inflammation", "setting": "[1]; 4 μCi", "result": "1/5"}, {"measurement": "mice affected by histiocytic and eosinophilic inflammation", "setting": "[1]; 8 Ci group", "result": "3/5"}, {"measurement": "unscheduled mortalities (euthanized, Staphylococcus bacterial infection)", "setting": "[1]; 8 μCi group, after 123 days", "result": "one"}, {"measurement": "organ weights at necropsy", "setting": "[1]; 145 days, varying dose levels", "result": "No significant group differences"}, {"measurement": "unscheduled mortalities, total", "setting": "[1]; all dose groups, 145 days", "result": "three"}, {"measurement": "radiation-induced histologic organ damage at necropsy", "setting": "[1]; any dose level, 145 days", "result": "no radiation-induced histologic organ damage"}, {"measurement": "effect on serum chemistry", "setting": "[1]; any dose level, n=29", "result": "No effect"}, {"measurement": "overall toxicity, acute or chronic radiation damage to normal tissues", "setting": "[1]; doses as high as 8 μCi (296 kBq)/mouse", "result": "nontoxic"}, {"measurement": "decrease of red blood cells mass", "setting": "[1]; highest dose group (8 μCi)", "result": "~10", "unit": "%"}, {"measurement": "maximum tolerated dose", "setting": "[1]; single i.v. doses 0.25-8 μCi/mouse", "result": "not reached"}, {"measurement": "Blood uptake", "setting": "[2]; 24 h p.i., n = 3", "result": "0.94±0.26", "unit": "% ID/g"}, {"measurement": "SW1222 tumor uptake", "setting": "[2]; 24 h p.i., n = 3", "result": "16.71±2.95", "unit": "% ID/g"}, {"measurement": "Blood uptake", "setting": "[2]; [3]", "result": "0.94 ± 0.26^a % ID/g"}, {"measurement": "SW1222 tumor uptake", "setting": "[2]; [3]", "result": "16.71 ± 2.95", "unit": "% ID/g"}, {"measurement": "Bone uptake", "setting": "[2]; pretargeted, 24 h p.i.", "result": "undetectable"}, {"measurement": "Tumor-to-tissue ratio, Blood", "setting": "[2]; pretargeted, 24 h p.i.", "result": "17.9 ± 4.0"}, {"measurement": "Tumor-to-tissue ratio, Heart", "setting": "[2]; pretargeted, 24 h p.i.", "result": "60.4 ± 35.8"}, {"measurement": "Tumor-to-tissue ratio, Kidneys", "setting": "[2]; pretargeted, 24 h p.i.", "result": "15.5 ± 4.8"}, {"measurement": "Tumor-to-tissue ratio, Large Intestine", "setting": "[2]; pretargeted, 24 h p.i.", "result": "147.5 ± 90.9"}, {"measurement": "Tumor-to-tissue ratio, Liver", "setting": "[2]; pretargeted, 24 h p.i.", "result": "11.9 ± 4.2"}, {"measurement": "Tumor-to-tissue ratio, Lungs", "setting": "[2]; pretargeted, 24 h p.i.", "result": "24.0 ± 13.5"}, {"measurement": "Tumor-to-tissue ratio, Muscle", "setting": "[2]; pretargeted, 24 h p.i.", "result": "128.6 ± 129.2"}, {"measurement": "Tumor-to-tissue ratio, Small Intestine", "setting": "[2]; pretargeted, 24 h p.i.", "result": "102.3 ± 67.1"}, {"measurement": "Tumor-to-tissue ratio, Spleen", "setting": "[2]; pretargeted, 24 h p.i.", "result": "31.1 ± 31.3"}, {"measurement": "Tumor-to-tissue ratio, Stomach", "setting": "[2]; pretargeted, 24 h p.i.", "result": "238.8 ± 150.7"}, {"measurement": "blood uptake (percent injected activity per gram of tissue)", "setting": "[2]; pretargeted, 24 h p.i.", "result": "0.94±0.26", "unit": "% IA/g"}, {"measurement": "kidney uptake (percent injected activity per gram of tissue)", "setting": "[2]; pretargeted, 24 h p.i.", "result": "1.08±0.55", "unit": "% IA/g"}, {"measurement": "liver uptake (percent injected activity per gram of tissue)", "setting": "[2]; pretargeted, 24 h p.i.", "result": "1.40±0.47", "unit": "% IA/g"}, {"measurement": "Bone uptake", "setting": "[2]; pretargeted, 24 h p.i., n = 3", "result": "0.00 ± 0.00", "unit": "% ID/g"}, {"measurement": "Heart uptake", "setting": "[2]; pretargeted, 24 h p.i., n = 3", "result": "0.28 ± 0.28", "unit": "% ID/g"}, {"measurement": "Kidneys uptake", "setting": "[2]; pretargeted, 24 h p.i., n = 3", "result": "1.08±0.55", "unit": "% ID/g"}, {"measurement": "Large Intestine uptake", "setting": "[2]; pretargeted, 24 h p.i., n = 3", "result": "0.11 ± 0.12", "unit": "% ID/g"}, {"measurement": "Liver uptake", "setting": "[2]; pretargeted, 24 h p.i., n = 3", "result": "1.40 ± 0.82", "unit": "% ID/g"}, {"measurement": "Lungs uptake", "setting": "[2]; pretargeted, 24 h p.i., n = 3", "result": "0.70 ± 0.67", "unit": "% ID/g"}, {"measurement": "Muscle uptake", "setting": "[2]; pretargeted, 24 h p.i., n = 3", "result": "0.13 ± 0.23", "unit": "% ID/g"}, {"measurement": "Small Intestine uptake", "setting": "[2]; pretargeted, 24 h p.i., n = 3", "result": "0.16 ± 0.18", "unit": "% ID/g"}, {"measurement": "Spleen uptake", "setting": "[2]; pretargeted, 24 h p.i., n = 3", "result": "0.54 ± 0.93", "unit": "% ID/g"}, {"measurement": "Stomach uptake", "setting": "[2]; pretargeted, 24 h p.i., n = 3", "result": "0.07 ± 0.08", "unit": "% ID/g"}, {"measurement": "Kidneys uptake", "setting": "[2]; pretargeted, 24 h p.i., n = 3, listed as [^225Ac] Proteus-DOTA", "result": "1.08 ± 0.55", "unit": "% ID/g"}, {"measurement": "tumor uptake (percent injected activity per gram of tissue)", "setting": "[2]; pretargeted, SW1222, 24 h p.i.", "result": "16.71±2.95", "unit": "% IA/g"}]}
